# Test results from patent US10265329B2, “Altering steroid metabolism for treatment of steroid-dependent disease” (THE CLEVELAND CLINIC FOUNDATION, priority 2015, dated 2019).
# Legend:
# 3βHSD = target: T1, 3βHSD (Homo sapiens, UniProt P14060); assay: Conversion of [3H]-DHEA by 3βHSD to AD in prostate cancer cells (HPLC/TLC); assay type: cell-based; settings: for 3βHSD inhibition activity relative to D4A: LNCaP, [3H]-DHEA to AD, 48 hours
# T1 construct: endogenous in cells; host or cells: LNCaP, VCaP
# T1 sequence (P14060 2-373 limits assumed): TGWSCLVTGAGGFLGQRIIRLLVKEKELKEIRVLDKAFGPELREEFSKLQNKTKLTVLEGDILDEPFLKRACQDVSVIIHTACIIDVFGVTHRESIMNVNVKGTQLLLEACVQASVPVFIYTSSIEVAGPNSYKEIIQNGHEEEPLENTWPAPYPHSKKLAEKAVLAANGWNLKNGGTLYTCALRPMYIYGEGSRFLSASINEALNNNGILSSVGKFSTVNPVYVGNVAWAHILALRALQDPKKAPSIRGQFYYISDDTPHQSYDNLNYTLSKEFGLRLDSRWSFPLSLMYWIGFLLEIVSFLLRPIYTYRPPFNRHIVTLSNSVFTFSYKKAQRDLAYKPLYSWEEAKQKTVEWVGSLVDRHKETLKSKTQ
# Description: (§1) Cell Line Metabolism: Cells were seeded and incubated in 12-well plates with 0.2 million cells/well for ˜24 h and then incubated with a mixture of radioactive ([^3H]-labeled) and non-radioactive androgens (final concentration, 100 nM; ˜1,000,000 cpm/well; PerkinElmer, Waltham, Mass.) at 37° C. Aliquots of medium were collected at the indicated times. Collected medium was treated with 1,000 units of β-glucuronidase (Helix pomatia; Sigma-Aldrich) at 65° C. for 2 h, extracted with 860 μL ethyl acetate:isooctane (1:1), and concentrated under nitrogen gas. Xenograft Metabolism: 10^7 LNCaP or VCaP cells were injected subcutaneously with Matrigel into surgically orchiectomized NSG mice that were implanted with 5 mg 90-day sustained-release DHEA pellets (Innovative Research of American, Sarasota, Fla.). Xenografts were harvested when they reached 1000 mm^3, minced, and cultured in DMEM with 10% FBS at 37° C. with mixture of radioactive ([^3H]-labeled) and non-radioactive androgens, or Abi, when they reached 1000 mm^3. Each xenograft was analyzed in triplicate in at least three independent experiments. Aliquots of medium were collected at the indicated times. Collected medium was treated with 1,000 units of β-glucuronidase at 65° C. for 2 h, extracted with 860 μL ethyl acetate:isooctane (1:1), and concentrated under nitrogen gas.
# Dried samples were reconstituted in 50% methanol and injected into the HPLC. Steroids and drug metabolites were separated on Kinetex 100×2.1 mm, 2.6 μm particle size C18 reverse-phase column (Phenomenex, Torrance, Calif.) using a methanol/water gradient at 30° C. […] Alternatively, dried samples were applied to plastic-backed silica gel plates and separated by thin-layer chromatography (TLC) using a mobile phase of 3:1 chloroform:ethyl acetate, followed by exposure of the plates to a phosphorimager screen and quantitated with a Storm model 860 phosphorimager (Applied Biosystems, Foster City, Calif.). […] Results are shown as mean±SD. […]
# CYP17A1 = target: T2, CYP17A1 (Homo sapiens, UniProt P05093); assay: Conversion of [3H]-pregnenolone to DHEA in 293 cells expressing CYP17A1; assay type: cell-based; settings: for CYP17A1 inhibition activity relative to Abi and D4A: 293 cells overexpressing CYP17A1, [3H]-pregnenolone to DHEA
# T2 construct: expressed in transfected cells
# T2 sequence (P05093 1-508): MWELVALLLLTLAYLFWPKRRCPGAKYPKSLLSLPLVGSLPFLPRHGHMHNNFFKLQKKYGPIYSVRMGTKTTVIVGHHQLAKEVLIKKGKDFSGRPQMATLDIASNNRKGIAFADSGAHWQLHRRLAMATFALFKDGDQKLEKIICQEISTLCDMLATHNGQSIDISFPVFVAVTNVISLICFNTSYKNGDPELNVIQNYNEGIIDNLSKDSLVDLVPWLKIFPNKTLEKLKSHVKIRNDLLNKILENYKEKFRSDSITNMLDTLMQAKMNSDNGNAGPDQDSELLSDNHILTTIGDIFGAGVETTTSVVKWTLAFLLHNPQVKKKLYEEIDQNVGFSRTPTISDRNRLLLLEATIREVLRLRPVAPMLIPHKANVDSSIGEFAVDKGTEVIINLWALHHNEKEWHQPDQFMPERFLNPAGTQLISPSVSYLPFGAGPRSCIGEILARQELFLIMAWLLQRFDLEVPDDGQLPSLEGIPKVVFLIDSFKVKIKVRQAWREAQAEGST
# From the text: LNCaP and VCaP cells were purchased from the American Type Culture Collection (Manassas, Va.) and maintained in RPMI-1640 with 10% FBS. LAPC4 cells were kindly provided by Dr. Charles Sawyers (Memorial Sloan Kettering Cancer Center, New York, N.Y.) and grown in Iscove's Modified Dulbecco's Medium with 10% FBS. C4-2 cells were kindly provided by Dr. Leland Chung (Cedars-Sinai Medical Center, Los Angeles, Calif.) and maintained in RPMI-1640 with 10% FBS. All experiments done with LNCaP and VCaP were done in plates coated with poly-DL-ornithine (Sigma-Aldrich, St. Louis, Mo.). A 293 cell line stably expressing human CYP17A1 was generated by transfection with plasmid pcDNA3-CYP17 (a generous gift of Dr. Walter Miller, University of California, San Francisco) and selection with G418. Cell lines was authenticated by DDC Medical (Fairfield, Ohio) and determined to be […] mycoplasma free with primers.
# as §1, with “Collected medium was treated with 1,000 units of β-glucuronidase at 65° C. for 2 h, extracted with 860 μL ethyl acetate:isooctane (1:1), and concentrated under nitrogen gas.” left out
# Dried samples were reconstituted in 50% methanol and injected into the HPLC. […] Alternatively, dried samples were applied to plastic-backed silica gel plates and separated by thin-layer chromatography (TLC) using a mobile phase of 3:1 chloroform:ethyl acetate, followed by exposure of the plates to a phosphorimager screen and quantitated with a Storm model 860 phosphorimager (Applied Biosystems, Foster City, Calif.). […]
# Cell lines, drugs and constructs. […] Cell lines were authenticated by DDC Medical (Fairfield, Ohio) and determined to be mycoplasma free with primers. […]
SMILES,3βHSD inhibition activity relative to D4A (3βHSD),CYP17A1 inhibition activity relative to Abi and D4A (CYP17A1),"potency relative to Abi at blocking conversion of [3H]-DHEA by 3βHSD to AD (3βHSD; LNCaP and VCaP cells, TLC and HPLC)","% conversion to DHEA (CYP17A1; 1 nM drug, 3 h incubation, vehicle 70.1%) [%]"
"C[C@]12CC[C@@H](O)C[C@@H]1CC[C@@H]1[C@@H]2CC[C@]2(C)C(c3cccnc3)=CC[C@@H]12 [Compound 3α-OH-5α-Abi, 17-(3-pyridyl)-5α-androsta-16-ene-3α-ol]",attenuation or loss,attenuated,,
"C[C@]12CCC(=O)C[C@@H]1CC[C@@H]1[C@@H]2CC[C@]2(C)C(c3cccnc3)=CC[C@@H]12 [Compound 5α-Abi, 17-(3-pyridyl)-5α-androsta-16-ene-3-one]",attenuation or loss,attenuated,,
"C[C@]12CCC(=O)C=C1CC[C@@H]1[C@@H]2CC[C@]2(C)C(c3cccnc3)=CC[C@@H]12 [Compound D4A, 17-(3-Pyridyl)androsta-4,16-dien-3-one]",,,approximately 10 fold,4.2
